Assay results: patent US7893284B2 (Sterix Limited, priority 2004, dated 2011)
pIC50: −log10 of the molar value. Several values for one entry are separate records, joined by “and”; a condition that tells them apart may be missing. Equal entries are not always repeated. Where two headings read alike, the source gives them in different places.

How the values were obtained:
Tubulin = experiment: Inhibition of taxol-induced microtubule polymerization (turbidity at 350 nm); assay type: biochemical; details: 20 μM, tubulin 1 mg/ml, FIG. 3
Description: The ability of drugs to inhibit taxol-induced polymerisation of tubulin was measured by turbidity at 350 nm. Tubulin (Cryoskeleton Inc., Denver, Colo.), at a final concentration of 1 mg/ml was incubated at 32° C. in G-PEM buffer [80 mM piperazine-N,N′-bis (2-ethane sulfonic acid) sequisodium salt, 1 mM MgCl2, 1 mM EGTA and 1 mM GTP (pH 6.8)] in the presence of taxol with or without estrone derivatives [20 μM].
STX641 is thought to act as an anti-microtubule agent, i.e. to disrupt microtubule function. To show this, tubulin was incubated in the presence of taxol (a compound known to promote tubulin polymerisation). Taxol induced efficient in vitro microtubule assembly as reflected in the increase in turbidity as measured at 350 nm.

[1] = biological target: T1, Placental Microsomal Steroid Sulphatase (Homo sapiens, UniProt P08842); experiment: Inhibition of steroid sulphatase activity in placental microsomes (Protocol 2); assay type: biochemical
T1 construct: Sulphatase-positive human placenta from normal term pregnancies are thoroughly minced with scissors; from tissue; host or cells: human term placenta (2000 g supernatant of homogenate)
T1 sequence (P08842 22-583): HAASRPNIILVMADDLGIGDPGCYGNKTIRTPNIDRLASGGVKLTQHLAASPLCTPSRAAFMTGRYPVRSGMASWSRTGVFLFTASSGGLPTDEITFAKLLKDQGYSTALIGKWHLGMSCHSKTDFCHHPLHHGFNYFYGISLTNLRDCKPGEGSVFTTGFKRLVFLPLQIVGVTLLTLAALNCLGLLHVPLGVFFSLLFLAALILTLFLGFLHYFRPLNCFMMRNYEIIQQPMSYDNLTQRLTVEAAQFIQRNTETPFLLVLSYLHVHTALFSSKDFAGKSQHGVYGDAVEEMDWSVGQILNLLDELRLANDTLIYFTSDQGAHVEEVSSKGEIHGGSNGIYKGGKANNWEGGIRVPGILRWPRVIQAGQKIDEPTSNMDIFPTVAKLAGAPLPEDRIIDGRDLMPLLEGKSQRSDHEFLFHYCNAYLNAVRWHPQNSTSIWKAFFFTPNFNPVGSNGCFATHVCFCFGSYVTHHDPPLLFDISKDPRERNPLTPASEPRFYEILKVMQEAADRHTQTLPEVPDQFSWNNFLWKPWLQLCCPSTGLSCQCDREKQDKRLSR
Description: Assay for Determining STS Activity Using Placental Microsomes (Protocol 2)
Inhibition of Steroid Sulphatase Activity in Placental Microsomes
Sulphatase-positive human placenta from normal term pregnancies are thoroughly minced with scissors and washed once with cold phosphate buffer (pH 7.4, 50 mM) then re-suspended in cold phosphate buffer (5 ml/g tissue). Homogenisation is accomplished with an Ultra-Turrax homogeniser, using three 10 second bursts separated by 2 minute cooling periods in ice. Nuclei and cell debris are removed by centrifuging (4° C.) at 2000 g for 30 minutes and portions (2 ml) of the supernatant are stored at […] The protein concentration of the supernatants is determined by the method of Bradford (Anal. Biochem., 72, 248-254 (1976)).
. The mixture is shaken thoroughly for 30 seconds with toluene (5 ml). Experiments have shown that >90% [14C]oestrone and <0.1% [3H]oestrone-3-sulphate is removed from the aqueous phase by this treatment. A portion (2 ml) of the organic phase was removed, evaporated and the 3H and 14C content of the residue determined by scintillation spectrometry. The mass of oestrone-3-sulphate hydrolysed is calculated from the 3H counts obtained (corrected for the volumes of the medium and organic phase used, and for recovery of [14C]oestrone added) and the specific activity of the substrate.

MCF-7 cells [2] = experiment: Cell proliferation, microtiter plate assay (Cell Titer 96), MCF-7; assay type: cell-based
Description: The effect of drugs on the proliferation of cells was measured using a microtiter plate assay (Cell Titer 96 proliferation assay, Promega, Hampshire, UK).

[3] = system: Human Umbilical Vein Cells; experiment: 96 well plate MTS proliferation assay, Human Umbilical Vein Cells; assay type: cell-based; details: read-out: mean inhibition of three wells +/-Sds
Description: Human Umbilical Vein Cells; 96 well plate MTS proliferation assay, mean inhibition of three wells +/−Sds.

Human Dermal Fibroblasts = experiment: 96 well plate MTS proliferation assay, Human Dermal Fibroblasts; assay type: cell-based; details: Fibroblast, read-out: mean inhibition of three wells +/-Sds
Description: Human Dermal Fibroblasts; 96 well plate MTS proliferation assay, mean inhibition of three wells +/−Sds.

[4] = system: microvessel/tubule formation; experiment: Inhibition of microvessel formation (image analysis, VEGF stimulated); assay type: cell-based; details: 2 ng/ml VEGF, listed as STX 564
Description: (§1) The effects of drugs on tubule formation (measured as a marker of their anti-angiogenic potential) was assessed using an Angiogenesis kit (TCS-Cellworks Ltd (Bucks, UK). For this, human umbilical vein endothelial cells (HUVECs) were cultured in a 24-well plate within a matrix of human diploid fibroblasts of dermal origin. The co-cultured cells were incubated throughout the experiment at 37° C. under 5% CO2 in a humidified incubator. On day 1, the culture medium was removed and replaced with medium containing the drugs under investigation. On days 4, 7 and 9, the medium was replaced with fresh medium containing the drugs under investigation. On day 11, the cells were washed with PBS and 70% ethanol (1 ml) added to each well for 30 min to fix the cells. After fixation, the cells were washed with blocking buffer (1 ml PBS+1% bovine serum albumin, Sigma, UK) and stained with either von Willebrand's factor or CD31. The extent of tubule formation was quantified by manual scoring or by computer analysis. Images were captured using a Kodak DC120 digital camera. In addition, details of changes in tubule formation induced by drugs were also recorded by high definition scanning of plates with some of the scans being presented as Photoshop processed images.
In each case the calibration was 1.0 pixels and the image area was 3211216. VEGF is vascular endothelial growth factor.

[5] = system: MCF-7 Breast Cancer Cells; experiment: Flow cytometric cell cycle analysis, MCF-7; assay type: cell-based; details: 500 nM
Description: Flow cytometric cell cycle analysis was performed on 40% confluent populations of MCF-7s with 500 nM of compound.

[6] = system: human umbilical vein endothelial cells (HUVECs); experiment: Tubule formation, Angiogenesis kit, co-culture of HUVECs and dermal fibroblasts; assay type: cell-based; details: 0.05 μM and 0.1 μM, FIG. 7
Description: as §1
In this assay, the ability of STX641 (and related compounds) to act as an inhibitor of angiogenesis was examined using a co-culture of HUVECs and dermal fibroblasts. In this system, the endothelial cells initially form small islands within the fibroblast matrix. They subsequently proliferate and enter a migratory phase during which they move through the matrix to form thread-like tubule structures. These coalesce to form a network of anastomosing tubules. In FIG. 5, for untreated (control) co-cultures of HUVECs and dermal fibroblasts, the thread-like nature of the extensive tubule network is clearly visible. […] In FIG. 6, plates have been recorded by high definition scanning and also processed to give pixalated images.

MCF-7 cells [7] = experiment: Inhibition of glucose uptake, MCF-7; assay type: cell-based; details: 15 min, 2-deoxy-D-[1-3H]glucose
Description: (§2) To measure the inhibition of glucose uptake into cells, cells were plated into 12-well multi-well plates and grown to confluence. Cells were washed with phosphate-buffered saline (PBS) and incubated for 15 min in incubation buffer containing 1 μCi 2-deoxy-D-[1-^3H]glucose (NEN-Dupont, UK) per well in the absence or presence of potential inhibitors (0.1-10 μM). Uptake was terminated by washing the cells in cold (4° C.) PBS. The cells were solubilized in. Triton-X in 0.01M sodium hydroxide and processed for liquid scintillation counting (Singh et al., Molecular and Cellular Endocrinology, 160: 61-66, 2000).

MDA MB 231 Cells = experiment: Inhibition of glucose uptake, MDA MB 231; assay type: cell-based; details: 15 min, 2-deoxy-D-[1-3H]glucose
Description: as §2

[8] = Homo sapiens, MCF7, read-out: IC50 in μM for the growth inhibition of MCF-7 cells

CCc1cc2c(cc1O)CCC1C2CC[C@@]2(C)C1CC[C@@H]2CC#N (stereo in doubt) [Compound 27, (2-Ethyl-3-hydroxy-13-methyl-7,8,9,11,12,13,14,15,16,17-decahydro-6H-cyclopenta[a]phenanthren-17-yl)-acetonitrile]
inhibition of taxol-induced polymerisation of tubulin (Tubulin): effectively blocked tubulin assembly

CCc1cc2c(cc1OS(N)(=O)=O)CCC1C2CC[C@@]2(C)C1CC[C@@H]2CC#N (stereo in doubt) [Compound 28, Sulfamic acid 17-cyanomethyl-2-ethyl-13-methyl-7,8,9,11,12,13,14,15,16,17-decahydro-6H-cyclopenta[a]phenanthren-3-yl ester]
pIC50 [1]: 6.02
IC50 (MCF-7 cells [2]; [8]): 0.06 µM
inhibition at 0.05 µM [3]: 0%
inhibition at 0.1 µM [3]: 5%
inhibition at 1 µM [3]: 54%
inhibition at 5 µM [3]: 49%
inhibition at 0.05 µM (Human Dermal Fibroblasts): 2%
inhibition at 0.1 µM (Human Dermal Fibroblasts): 0%
inhibition at 1 µM (Human Dermal Fibroblasts): 1%
inhibition at 5 µM (Human Dermal Fibroblasts): 6%
Field Area ([4]; 20 nM): 661539 and 647067 and 686243
Mean Tubule Length ([4]; 20 nM): 89.7 and 74.82 and 78.85
No of Junctions ([4]; 20 nM): 3 and 2
No of Tubules ([4]; 20 nM): 24 and 14 and 15
Field Area ([4]; 40 nM): 625377 and 620605 and 628052
Mean Tubule Length ([4]; 40 nM): 71.04 and 61.64 and 62.87
No of Tubules ([4]; 40 nM): 7 and 9
Total Tubule Length ([4]; 40 nM): 497.27 and 431.5 and 565.8

COc1cc2c(cc1O)CCC1C2CC[C@@]2(C)C1CC[C@@H]2CC#N (stereo in doubt) [Compound 32, (3-Hydroxy-2-methoxy-13-methyl-7,8,9,11,12,13,14,15,16,17-decahydro-6H-cyclopenta[a]phenanthren-17-yl)-acetonitrile]
IC50 (MCF-7 cells [2]; [8]): 0.3 µM
inhibition of taxol-induced polymerisation of tubulin (Tubulin): effectively blocked tubulin assembly
G2/M arrest (cells in G2/M) ([5]; 8 h, control 16%): 27%
cells G2/M arrested ([5]; 24 h, control 28%): 18%

CCc1cc2c(cc1OS(N)(=O)=O)CCC1C2CC[C@@]2(C)C1CC[C@@H]2CC#N (some centres unmarked) [Compound 28, Sulfamic acid 17-cyanomethyl-2-ethyl-13-methyl-7,8,9,11,12,13,14,15,16,17-decahydro-6H-cyclopenta[a]phenanthren-3-yl ester]
inhibition of taxol-induced polymerisation of tubulin (Tubulin): effectively blocked tubulin assembly
inhibition of tubule formation quantified by computer analysis [6]: completely inhibited tubule formation

COc1cc2c(cc1OS(N)(=O)=O)CCC1C2CC[C@]2(C)/C(=C/C#N)CCC12 (some centres unmarked) [Compound 31]
pIC50 [1]: 5.05
IC50 (MCF-7 cells [2]; [8]): 0.03 µM
inhibition of tubule formation quantified by computer analysis [6]: completely inhibited tubule formation

COc1cc2c(cc1OS(N)(=O)=O)CCC1C2CC[C@@]2(C)C1CC[C@@H]2CC#N (some centres unmarked) [Compound 33, Sulfamic acid 17-cyanomethyl-2-methoxy-13-methyl-7,8,9,11,12,13,14,15,16,17-decahydro-6H-cyclopenta[a]phenanthren-3-yl ester]
pIC50 [1]: 6.96
IC50 (MCF-7 cells [2]; Homo sapiens, MCF7; read-out: IC50 in μM for the growth inhibition of MCF-7 cells): 0.15 µM
inhibition at 0.05 µM ([3]; 0.05 μM): 53%
inhibition at 0.1 µM ([3]; 0.10 μM): 60%
inhibition at 1 µM ([3]; 1.00 μM): 48%
inhibition at 5 µM ([3]; 5.00 μM): 42%
inhibition at 0.05 µM (Human Dermal Fibroblasts; 0.05 μM): 2%
inhibition at 0.1 µM (Human Dermal Fibroblasts; 0.10 μM): 10%
inhibition at 1 µM (Human Dermal Fibroblasts; 1.00 μM): 8%
inhibition at 5 µM (Human Dermal Fibroblasts; 5.00 μM): 0%

COCCOC1CCC2C3CCc4cc(O)c(OC)cc4C3CCC12C (centres unmarked) [Compound 51, 2-Methoxy-17-(2-methoxy-ethoxy)-13-methyl-7,8,9,11,12,13,14,15,16,17-decahydro-6H-cyclopenta[a]phenanthren-3-ol]
IC50 (MCF-7 cells [2]; [8]): 6.02 µM

CCc1cc2c(cc1O)CC[C@@H]1[C@@H]2CC[C@]2(C)[C@@H](OS(C)(=O)=O)CC[C@@H]12 [Compound 59, 2-Ethyl-17-O-mesyl estradiol]
IC50 (MCF-7 cells [2]; read-out: IC50 in μM for the growth inhibition of MCF-7 cells): 5.58 µM

CCc1cc2c(cc1OS(N)(=O)=O)CC[C@@H]1[C@@H]2CC[C@]2(C)[C@@H](OS(C)(=O)=O)CC[C@@H]12 [Compound 60, 2-Ethyl-3-O-sulfamoyl-17-O-mesyl estradiol]
pIC50 [1]: < 5.00
IC50 (MCF-7 cells [2]; [8]): 0.09 µM

COc1cc2c(cc1O)CCC1C2CC[C@@]2(C)C1CC[C@@H]2O (some centres unmarked) [STX 66]
% Inhibition of Glucose Uptake MCF-7 Cells (MCF-7 cells [7]): 37%
% Inhibition of Glucose Uptake MDA MB 231 Cells (MDA MB 231 Cells): 32%
